Measurements: ChEMBL document CHEMBL1201862, “PubChem BioAssay data set” (2004)
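How tested: cells in 96-well plates exposed to compound for 48 hours at five concentrations. GI50 is the concentration that inhibits growth by half.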 The source made the active and inactive calls. Rule as the data show it: active = GI50 up to about 1.1 µM and inactive = higher. Starred links: 1 amine or outer side, 2 acyl side, 3 side chain; linkers in the order of their positions; H or OH if unused. Non-standard residues stand in square brackets, D forms with d. Residues, ends and D or L forms follow the SMILES beside them. *: point of attachment. X47 = CCC(=O)CC1CC(C)CC(C(=O)[*:2])N1[*:1]; X46 = CCCCCCCCC(C)C(=O)*; Aib = CC(C)(N)C(=O)O; X48 = CC(CN(C)CCO)N*

How the values were obtained:
Experiment in all cases: NCI-60 cell line screen, 48 h
HCT-116 = test system: HCT-116
HOP-92 = test system: HOP-92
M19-MEL = test system: M19-MEL
DLD-1 = test system: DLD-1
SF-295 = test system: SF-295
NCI-H460 = test system: NCI-H460
SF-539 = test system: SF-539
XF498 = test system: XF498
NCI-H226 = test system: NCI-H226
SK-MEL-28 = test system: SK-MEL-28
SR = test system: SR
U-251 = test system: U-251
SNB-78 = test system: SNB-78
KM-20L2 = test system: KM-20L2
MDA-MB-231 = test system: MDA-MB-231
PC-3 = test system: PC-3
MDA-MB-435 = test system: MDA-MB-435
NCI/ADR-RES = test system: NCI/ADR-RES
DU-145 = test system: DU-145
Hs-578T = test system: Hs-578T

SMILES	GI50 (HCT-116)	GI50 (HOP-92)	GI50 (M19-MEL)	GI50 (DLD-1)	GI50 (SF-295)	GI50 (NCI-H460)	GI50 (SF-539)	GI50 (XF498)	GI50 (NCI-H226)	GI50 (SK-MEL-28)	GI50 (SR)	GI50 (U-251)	GI50 (SNB-78)	GI50 (KM-20L2)	GI50 (MDA-MB-231)	GI50 (PC-3)	GI50 (MDA-MB-435)	GI50 (NCI/ADR-RES)	GI50 (DU-145)	GI50 (Hs-578T)
O=C(c1ccccc1)c1cccc(C(=O)c2ccccc2)c1	> 100 µM (inactive)	53 µM (inactive)	> 100 µM (inactive)	> 100 µM (inactive)	> 100 µM (inactive)	> 100 µM (inactive)	> 100 µM (inactive)	> 100 µM (inactive)	34.3 µM (inactive)	> 100 µM (inactive)	97.9 µM (inactive)	> 100 µM (inactive)	> 100 µM (inactive)	–	–	–	–	–	–	–
Oc1cc(-c2ccccn2)nc2cc(F)ccc12	43.3 µM (inactive)	48.2 µM (inactive)	56.6 µM (inactive)	81.8 µM (inactive)	> 100 µM (inactive)	38.7 µM (inactive)	58.6 µM (inactive)	–	> 100 µM (inactive)	> 100 µM (inactive)	18.9 µM (inactive)	–	> 100 µM (inactive)	> 100 µM (inactive)	–	–	–	–	–	–
CCN1c2ccccc2-c2c3c1cc(C)cc3c1ccccc1[n+]2CC	0.644 µM (active)	1.4 µM (inactive)	0.36 µM (active)	2.55 µM (inactive)	0.78 µM (active)	1.23 µM (inactive)	1.19 µM (inactive)	–	1.75 µM (inactive)	1.19 µM (inactive)	1.55 µM (inactive)	0.571 µM (active)	2.64 µM (inactive)	–	–	–	–	–	–	–
CCCCCCCCCCCCCCCCCCNc1ccn(C2OC(COP(=O)(O)OCC3OC(n4ccc(N)nc4=O)C(O)C3O)C(O)C2O)c(=O)n1 (stereo not given)	18.8 µM (inactive)	> 51.3 µM (inactive)	–	–	> 100 µM (inactive)	14.3 µM (inactive)	> 100 µM (inactive)	–	> 100 µM (inactive)	> 92 µM (inactive)	> 37.6 µM (inactive)	57.8 µM (inactive)	–	–	> 100 µM (inactive)	39.8 µM (inactive)	> 73.1 µM (inactive)	47.1 µM (inactive)	44.2 µM (inactive)	> 100 µM (inactive)
CN(C)CC/C(=N\Nc1ccc(Cl)c(Cl)c1)c1ccccc1	1.73 µM (inactive)	–	1.89 µM (inactive)	3.39 µM (inactive)	1.9 µM (inactive)	1.85 µM (inactive)	1.82 µM (inactive)	–	–	2.52 µM (inactive)	2.13 µM (inactive)	1.78 µM (inactive)	2.4 µM (inactive)	1.74 µM (inactive)	–	–	–	–	–	–
COc1ccc(N2C(=O)[C@@H]3[C@H](C2=O)c2[nH]c4ccccc4c2C2CCC(C(C)(C)C)C[C@@H]23)cc1 (stereo not given in full)	30.5 µM (inactive)	–	46.9 µM (inactive)	37.7 µM (inactive)	12.3 µM (inactive)	25.2 µM (inactive)	22.9 µM (inactive)	44.8 µM (inactive)	22.3 µM (inactive)	34.4 µM (inactive)	–	20.9 µM (inactive)	23.7 µM (inactive)	61.9 µM (inactive)	–	–	–	–	–	–
Cc1ccccc1NC(=O)c1nc(S)nc(N)c1-c1ccccc1C	> 100 µM (inactive)	> 100 µM (inactive)	> 100 µM (inactive)	> 100 µM (inactive)	> 100 µM (inactive)	> 100 µM (inactive)	> 100 µM (inactive)	–	> 100 µM (inactive)	> 100 µM (inactive)	> 100 µM (inactive)	> 100 µM (inactive)	> 100 µM (inactive)	> 100 µM (inactive)	–	–	–	–	–	–
O=C1CN=C(C[N+](=O)[O-])c2ccccc21	> 100 µM (inactive)	> 100 µM (inactive)	–	> 100 µM (inactive)	> 100 µM (inactive)	> 100 µM (inactive)	> 100 µM (inactive)	–	> 100 µM (inactive)	> 100 µM (inactive)	> 100 µM (inactive)	> 100 µM (inactive)	> 100 µM (inactive)	> 100 µM (inactive)	–	–	–	–	–	–
COc1cc2c(c(OC)c1OC)-c1ccc(SC)c(=O)cc1C(CC(=O)Oc1ccccc1F)C2 (stereo not given)	< 0.0075 µM (active)	0.0377 µM (active)	0.0218 µM (active)	0.0196 µM (active)	< 0.0075 µM (active)	0.0103 µM (active)	< 0.0075 µM (active)	–	0.0413 µM (active)	0.055 µM (active)	< 0.0075 µM (active)	< 0.0075 µM (active)	0.0206 µM (active)	0.0127 µM (active)	–	–	–	–	–	–
N#CC(C(=O)O)C(c1c(Cl)cccc1Cl)C(C#N)C(=O)O (stereo not given)	> 100 µM (inactive)	> 100 µM (inactive)	–	–	> 100 µM (inactive)	> 100 µM (inactive)	> 100 µM (inactive)	–	> 100 µM (inactive)	> 100 µM (inactive)	> 100 µM (inactive)	> 100 µM (inactive)	–	–	> 100 µM (inactive)	> 100 µM (inactive)	> 100 µM (inactive)	> 100 µM (inactive)	> 100 µM (inactive)	> 100 µM (inactive)
CCCCCCCCCCCCCCCCCc1nc(Cl)nc(Cl)c1Cl	> 100 µM (inactive)	> 100 µM (inactive)	–	–	> 100 µM (inactive)	> 100 µM (inactive)	> 100 µM (inactive)	–	15.6 µM (inactive)	> 100 µM (inactive)	52.2 µM (inactive)	> 100 µM (inactive)	–	–	> 100 µM (inactive)	38.1 µM (inactive)	> 100 µM (inactive)	> 100 µM (inactive)	> 100 µM (inactive)	> 100 µM (inactive)
C[n+]1c2ccccc2c(NCC(=O)O)c2ccccc21	86.7 µM (inactive)	–	> 100 µM (inactive)	> 100 µM (inactive)	> 100 µM (inactive)	> 100 µM (inactive)	> 100 µM (inactive)	–	> 100 µM (inactive)	–	> 100 µM (inactive)	> 100 µM (inactive)	> 100 µM (inactive)	> 100 µM (inactive)	–	–	–	–	–	–
O=C(Cc1nc2ccccc2s1)C(=O)Nc1cccc(C(F)(F)F)c1	> 100 µM (inactive)	> 100 µM (inactive)	> 100 µM (inactive)	> 100 µM (inactive)	> 100 µM (inactive)	> 100 µM (inactive)	> 100 µM (inactive)	–	> 100 µM (inactive)	> 100 µM (inactive)	> 100 µM (inactive)	> 100 µM (inactive)	> 100 µM (inactive)	> 100 µM (inactive)	–	–	–	–	–	–
O=C1N=CN=C2C=CC(Cl)=C(I)C12 (stereo not given)	42.5 µM (inactive)	–	> 100 µM (inactive)	58.5 µM (inactive)	> 100 µM (inactive)	75.5 µM (inactive)	–	51.1 µM (inactive)	–	> 100 µM (inactive)	91.8 µM (inactive)	74.3 µM (inactive)	–	> 100 µM (inactive)	–	–	–	–	–	–
COc1ccc(CCc2ccc3c(c2)OCO3)cc1	36.6 µM (inactive)	36.8 µM (inactive)	–	–	65 µM (inactive)	> 100 µM (inactive)	92 µM (inactive)	–	62.5 µM (inactive)	> 100 µM (inactive)	17.5 µM (inactive)	33.7 µM (inactive)	–	–	> 100 µM (inactive)	34.6 µM (inactive)	19.6 µM (inactive)	77.4 µM (inactive)	43 µM (inactive)	86.3 µM (inactive)
NC(=S)NNC(=O)CCC(=O)Nc1ccc(Cl)cc1Cl	> 100 µM (inactive)	> 100 µM (inactive)	> 100 µM (inactive)	> 100 µM (inactive)	> 100 µM (inactive)	> 100 µM (inactive)	> 100 µM (inactive)	–	> 100 µM (inactive)	> 100 µM (inactive)	–	> 100 µM (inactive)	> 100 µM (inactive)	> 100 µM (inactive)	–	–	–	–	–	–
O=[N+]([O-])C1C2C=CC(C2)[C@H]1c1ccc(Cl)cc1Cl (stereo not given in full)	37 µM (inactive)	23.3 µM (inactive)	34.8 µM (inactive)	20.3 µM (inactive)	24.8 µM (inactive)	36.2 µM (inactive)	35.8 µM (inactive)	43.7 µM (inactive)	49 µM (inactive)	19.7 µM (inactive)	35.7 µM (inactive)	35.3 µM (inactive)	48.4 µM (inactive)	–	–	–	–	–	–	–
CSc1ccc2c(cc1=O)[C@@H](NC(=O)c1cccc([N+](=O)[O-])c1)CCc1cc(O)c(O)c(O)c1-2	20 µM (inactive)	> 100 µM (inactive)	22.1 µM (inactive)	43.8 µM (inactive)	42.4 µM (inactive)	54.2 µM (inactive)	26.2 µM (inactive)	–	24.2 µM (inactive)	> 100 µM (inactive)	–	22.8 µM (inactive)	–	23 µM (inactive)	–	–	–	–	–	–
CCCCCCCCC(C)C(=O)N1CCCC1C(=O)N1C(CC(=O)CC)CC(C)CC1C(=O)NC(C)C(=O)NC(C)(C)C(=O)NC(C)(C)C(=O)NC(C(=O)NC(C)C(=O)NC(C)(C)C(=O)NC(C)(C)C(=O)NC(C)CN(C)CCO)C(C)CC (stereo not given) (X46-P[X47]A[Aib][Aib]IA[Aib][Aib]-X48; configuration not given here)	0.0299 µM (active)	< 0.01 µM (active)	–	–	< 0.01 µM (active)	0.0204 µM (active)	0.211 µM (active)	–	0.133 µM (active)	2.89 µM (inactive)	0.0294 µM (active)	< 0.0498 µM (active)	–	–	0.56 µM (active)	0.0103 µM (active)	1.41 µM (inactive)	0.435 µM (active)	0.0847 µM (active)	0.168 µM (active)
NC(=O)c1cc([N+](=O)[O-])cc([N+](=O)[O-])c1 [NITROMIDE]	> 100 µM (inactive)	> 100 µM (inactive)	22.4 µM (inactive)	> 100 µM (inactive)	> 100 µM (inactive)	> 100 µM (inactive)	> 100 µM (inactive)	–	> 100 µM (inactive)	> 100 µM (inactive)	> 100 µM (inactive)	> 100 µM (inactive)	–	> 100 µM (inactive)	–	–	–	–	–	–
